Test results: publication PMC12391391, “The balance between B55α and Greatwall expression levels predicts sensitivity to Greatwall inhibition in cancer cells” (Nature Communications, 2025)

Legend:
Assay in all cases: biochemical
Design in all cases: LanthaScreen kinase activity assay (Thermo Fisher), dose-dependent inhibition by C-604
Settings in all cases: read-out: IC50 (C-604)
[1] = target: HIPK2 (Homo sapiens, UniProt Q9H2X6)
Experimental: (§1) To identify potential C-604 off-targets, we utilised a commercially available off-target screening service (Thermo Fisher Scientific) to assess the impact of C-604 on the in vitro activity of 100 human kinases (Supplementary Fig. 8a). Out of 100 tested targets, C-604 (1 µM) inhibited GWL (inhibition 95%) and an additional 10 kinases (inhibition ≥ 80%). […] The in vitro off-target effects of compound C-604 were determined by assessing its inhibitory potential in a panel of 100 human kinases using the LanthaScreen Kinase Activity Assay (Thermo Fisher Scientific).

[2] = target: GSK3B (Homo sapiens, UniProt P49841)
Experimental: as §1

[3] = target: T1, MAP3K7 (Homo sapiens, UniProt O43318)
T1 sequence (O43318 1-606): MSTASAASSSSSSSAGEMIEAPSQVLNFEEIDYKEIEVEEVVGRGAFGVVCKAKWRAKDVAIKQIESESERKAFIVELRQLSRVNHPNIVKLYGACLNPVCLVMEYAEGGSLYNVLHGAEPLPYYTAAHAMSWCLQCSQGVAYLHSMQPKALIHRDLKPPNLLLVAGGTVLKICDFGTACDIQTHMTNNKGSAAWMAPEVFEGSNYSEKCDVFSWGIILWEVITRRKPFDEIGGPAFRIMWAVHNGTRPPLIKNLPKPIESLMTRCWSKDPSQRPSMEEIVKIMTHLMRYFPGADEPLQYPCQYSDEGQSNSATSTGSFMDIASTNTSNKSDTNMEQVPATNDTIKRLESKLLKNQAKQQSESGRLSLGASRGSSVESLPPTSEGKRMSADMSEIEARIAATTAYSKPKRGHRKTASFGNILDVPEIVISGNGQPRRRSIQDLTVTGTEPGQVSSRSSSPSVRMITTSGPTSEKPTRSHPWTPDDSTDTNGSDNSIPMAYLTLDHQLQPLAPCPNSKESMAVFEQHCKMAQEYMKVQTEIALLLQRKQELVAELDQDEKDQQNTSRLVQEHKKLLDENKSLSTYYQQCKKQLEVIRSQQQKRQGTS
Experimental: as §1

[4] = target: T2, NUAK1 (Homo sapiens, UniProt O60285)
T2 sequence (O60285 1-661): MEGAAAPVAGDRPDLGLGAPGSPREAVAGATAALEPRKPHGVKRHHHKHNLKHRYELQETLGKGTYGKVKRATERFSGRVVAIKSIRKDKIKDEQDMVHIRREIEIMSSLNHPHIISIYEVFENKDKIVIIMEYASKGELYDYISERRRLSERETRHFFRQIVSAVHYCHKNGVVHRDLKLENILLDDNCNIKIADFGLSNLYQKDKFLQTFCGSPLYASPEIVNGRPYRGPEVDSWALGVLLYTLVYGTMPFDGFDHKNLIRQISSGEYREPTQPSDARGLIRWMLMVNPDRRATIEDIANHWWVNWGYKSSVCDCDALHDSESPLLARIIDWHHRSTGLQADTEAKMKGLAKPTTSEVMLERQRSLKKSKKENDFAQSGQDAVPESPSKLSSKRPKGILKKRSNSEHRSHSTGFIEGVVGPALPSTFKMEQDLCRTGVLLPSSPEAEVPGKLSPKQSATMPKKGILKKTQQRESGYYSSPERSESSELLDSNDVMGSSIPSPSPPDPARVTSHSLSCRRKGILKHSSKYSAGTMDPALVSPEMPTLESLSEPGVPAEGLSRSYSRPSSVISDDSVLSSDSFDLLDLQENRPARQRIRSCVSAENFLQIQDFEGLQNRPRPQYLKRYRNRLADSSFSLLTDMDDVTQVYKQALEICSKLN
Experimental: as §1

[5] = target: T3, ULK2 (Homo sapiens, UniProt Q8IYT8)
T3 sequence (Q8IYT8 1-1036): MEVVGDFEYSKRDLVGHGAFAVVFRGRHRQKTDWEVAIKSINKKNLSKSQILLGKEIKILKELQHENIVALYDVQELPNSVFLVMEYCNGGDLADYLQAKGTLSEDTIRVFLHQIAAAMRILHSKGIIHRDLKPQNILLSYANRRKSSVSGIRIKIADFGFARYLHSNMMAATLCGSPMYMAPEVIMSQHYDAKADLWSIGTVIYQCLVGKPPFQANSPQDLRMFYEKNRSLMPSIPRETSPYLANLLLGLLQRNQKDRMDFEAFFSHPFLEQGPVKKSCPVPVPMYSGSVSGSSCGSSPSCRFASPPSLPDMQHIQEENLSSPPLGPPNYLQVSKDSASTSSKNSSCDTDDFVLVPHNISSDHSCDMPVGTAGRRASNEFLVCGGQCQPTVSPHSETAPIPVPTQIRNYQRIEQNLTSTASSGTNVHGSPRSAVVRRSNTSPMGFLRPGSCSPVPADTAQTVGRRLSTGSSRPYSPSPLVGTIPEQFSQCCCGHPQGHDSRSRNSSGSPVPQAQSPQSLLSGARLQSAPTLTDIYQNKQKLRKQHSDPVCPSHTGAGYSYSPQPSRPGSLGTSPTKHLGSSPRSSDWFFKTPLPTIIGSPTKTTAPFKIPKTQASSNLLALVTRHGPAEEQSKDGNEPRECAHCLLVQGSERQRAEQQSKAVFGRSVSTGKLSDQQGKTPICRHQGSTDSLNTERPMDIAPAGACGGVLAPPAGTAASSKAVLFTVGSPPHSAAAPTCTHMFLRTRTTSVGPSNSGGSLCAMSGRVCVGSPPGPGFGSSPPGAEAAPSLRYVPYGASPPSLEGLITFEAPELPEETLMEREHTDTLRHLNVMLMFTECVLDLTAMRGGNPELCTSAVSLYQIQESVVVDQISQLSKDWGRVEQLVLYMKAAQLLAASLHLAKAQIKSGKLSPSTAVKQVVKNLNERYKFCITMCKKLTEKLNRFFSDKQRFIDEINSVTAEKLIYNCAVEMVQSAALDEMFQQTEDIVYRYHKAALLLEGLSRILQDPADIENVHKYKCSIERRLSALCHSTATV
Experimental: as §1

Sequence of HIPK2 (Q9H2X6 whole entry): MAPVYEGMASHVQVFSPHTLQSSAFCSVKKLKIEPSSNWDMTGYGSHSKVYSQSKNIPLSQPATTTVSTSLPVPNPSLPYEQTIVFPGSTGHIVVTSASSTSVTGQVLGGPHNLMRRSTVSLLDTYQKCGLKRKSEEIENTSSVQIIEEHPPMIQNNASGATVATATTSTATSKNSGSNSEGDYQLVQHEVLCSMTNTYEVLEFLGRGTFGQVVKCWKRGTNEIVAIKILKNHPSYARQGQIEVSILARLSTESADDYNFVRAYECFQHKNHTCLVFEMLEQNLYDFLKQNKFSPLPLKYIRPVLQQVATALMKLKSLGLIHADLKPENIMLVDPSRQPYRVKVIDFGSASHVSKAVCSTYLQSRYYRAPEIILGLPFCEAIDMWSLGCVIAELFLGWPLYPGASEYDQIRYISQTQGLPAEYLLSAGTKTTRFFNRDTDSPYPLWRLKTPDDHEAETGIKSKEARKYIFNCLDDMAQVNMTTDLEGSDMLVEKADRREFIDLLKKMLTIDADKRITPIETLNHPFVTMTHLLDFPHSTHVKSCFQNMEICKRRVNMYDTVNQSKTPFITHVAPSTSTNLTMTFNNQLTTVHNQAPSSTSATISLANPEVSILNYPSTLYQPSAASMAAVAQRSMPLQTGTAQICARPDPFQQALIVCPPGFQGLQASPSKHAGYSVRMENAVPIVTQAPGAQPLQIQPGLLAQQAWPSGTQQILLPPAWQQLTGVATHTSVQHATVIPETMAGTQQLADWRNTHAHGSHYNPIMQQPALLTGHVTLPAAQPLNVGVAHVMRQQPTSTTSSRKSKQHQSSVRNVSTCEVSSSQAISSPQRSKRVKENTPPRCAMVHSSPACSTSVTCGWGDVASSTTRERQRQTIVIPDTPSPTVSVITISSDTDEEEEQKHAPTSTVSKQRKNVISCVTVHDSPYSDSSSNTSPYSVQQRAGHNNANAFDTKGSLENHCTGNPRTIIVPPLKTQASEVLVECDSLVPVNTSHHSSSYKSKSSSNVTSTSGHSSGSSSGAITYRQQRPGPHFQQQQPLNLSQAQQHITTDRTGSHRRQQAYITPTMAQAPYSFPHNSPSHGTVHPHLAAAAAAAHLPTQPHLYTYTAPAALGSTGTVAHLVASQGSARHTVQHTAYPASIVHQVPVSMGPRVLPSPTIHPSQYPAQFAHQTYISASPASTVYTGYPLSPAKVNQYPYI
Sequence of GSK3B (P49841 whole entry): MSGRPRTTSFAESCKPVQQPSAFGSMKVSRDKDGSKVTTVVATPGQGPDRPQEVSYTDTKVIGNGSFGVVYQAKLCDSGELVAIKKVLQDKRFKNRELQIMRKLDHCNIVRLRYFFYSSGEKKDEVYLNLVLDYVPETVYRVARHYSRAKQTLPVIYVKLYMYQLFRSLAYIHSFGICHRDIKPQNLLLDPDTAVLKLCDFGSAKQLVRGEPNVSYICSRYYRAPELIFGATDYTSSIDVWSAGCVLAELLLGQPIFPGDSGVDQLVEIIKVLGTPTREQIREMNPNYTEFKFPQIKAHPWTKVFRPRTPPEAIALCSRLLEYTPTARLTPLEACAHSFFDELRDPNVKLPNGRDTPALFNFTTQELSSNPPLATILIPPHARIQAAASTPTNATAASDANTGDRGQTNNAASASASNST

IC50 [1]: 43 nM
IC50 [2]: 283 nM
IC50 [3]: 126 nM
IC50 [4]: 10.1 nM
IC50 [5]: 21.6 nM
SMILES: CNC(=O)c1c[nH]c2ncc(-c3ccc(OCCN4CCC(c5ccccc5)C4)cc3)nc12 (racemic) [compound 21, C-604]
